Measurements as given in patent US20210379153A1, “COMBINATION THERAPIES COMPRISING SIRP ALPHA-BASED CHIMERIC PROTEINS” (Shattuck Labs, Inc., priority 2018, published 2021).
“And” between values parts separate entries of the source, which are not always exact repeats. Equal values may be shown once.

What was measured:
tumors [1] = experiment: In vivo tumor model, SIRPα-Fc-LIGHT with anti-PD-1 (Example 15); set-up: species or system mice; settings: combination with anti-PD-1 antibody
Method: The in vivo ability of combinations of the SIRPα-Fc-LIGHT chimeric protein with anti-PD-1 antibodies to target and treat tumors was determined. (FIG. 26A and FIG. 26B) FIG. 26C and FIG. 26D include data relevant to the graphs of FIG. 26A and FIG. 26B.

tumors [2] = experiment: In vivo tumor model, SIRPα-Fc-OX40L with checkpoint antibodies (Example 14); set-up: species or system mice; settings: chimeric protein alone
Method: The in vivo ability of combinations of the SIRPα-Fc-OX40L chimeric protein with anti-CTLA-4 antibodies or the SIRPα-Fc-OX40L chimeric protein with anti-PD-1 antibodies to target and treat tumors was determined.

[3] = tested on: IRF-inducible ISG reporter in RAW264.7 cells; experiment: RAW264.7-ISG interferon reporter cells co-cultured with A20 lymphoma cells; assay type: cell-based, mouse; settings: monotherapy; 50 mg/mL proteins, 1 mg/mL anti-mCD20; 24 hours
Method: FIG. 8D: Macrophage:Toledo lymphoma co-cultures were harvested 2 hours into phagocytosis assays in the presence of rituximab ([…]), SIRPα-Fc-CD40L ([…]), or the combination of both agents. Macrophages were isolated by CD11b+ FACS, RNA was prepared, cDNA synthesized, and gene expression (IFNa1, IFNb1, CD80, and CD86) assessed by qRT-PCR. Fold change was calculated using DDCT and values obtained from the housekeeping gene ACTB, and the corresponding values from untreated samples. […] After 2 hours, co-cultures were isolated from tissue culture vessels and were stained with a fluorescently conjugated CD11b antibody to discriminate macrophages. Cells were then assessed by flow cytometry for the co-localization of fluorescent signal from both cells types. […] After 24-hours type I interferon induced luminescence was assessed using a luminometer. The maximum luminescence (RLU) from each experiment was set to 1, and all other samples were normalized accordingly. […]
Additionally, a macrophage reporter system was used to detect activation. […] After 24 hours, culture supernatant was collected and assessed for luciferase activity, which would indicate activation of a type I interferon response in the RAW-ISG reporter cells. […]

FcγR-Ia = FcγR-Ia (Homo sapiens, UniProt P12314); experiment: SPR binding to Fc receptor FcγR-Ia
From the text: Scale is shown and yellow arrows correspond with each identified monomer. A schematic of the hexamer species is shown to the right, depicting dimerization of the Fc domain and trimerization of the CD40L domain. […] Recombinant hSIRPα-Fc, hCD40L-Fc, and hIgG1 were used as positive controls. […] In both panels, the CHOK1 Parental is on the left and the CHOK1/hCD47 is on the right. […] For both graphs, the CHOK1 Parental is on the bottom. […] In this figure, the control is the top curve, the SIRPα-Fc-CD40L is the middle curve, and the anti-CD47 is the bottom curve.
The extracellular domain (ECD) of SIRPα and the ECD of CD40L were fused via an antibody Fc domain to generate SIRPαECD-Fc-CD40LECD chimeric proteins. When human proteins were used, the chimeric protein is referred to as hSIRPα-Fc-CD40L; when murine proteins were used, the chimeric protein is referred to as and mSIRPα-Fc-CD40L. […] The purified protein was then analyzed for the presence of each individual domain by Western blotting using anti-SIRPα, anti-Fc, and anti-CD40L antibodies (FIG. 3A, bottom). […] Next, binding affinities for SIRPα-Fc-CD40L to recombinant CD47, CD40, or Fc receptors were evaluated by surface plasmon resonance (SPR). […] A functional ELISA evaluated whether SIRPα-Fc-CD40L could outcompete a commercially available single-sided SIRPα-Fc control for binding to recombinant CD47 (FIG. 3H).

FcγR-IIb = molecular target: T1, FcγR-IIb (Homo sapiens, UniProt P31994); experiment: SPR binding to Fc receptor FcγR-IIb
T1 sequence (P31994 43-310): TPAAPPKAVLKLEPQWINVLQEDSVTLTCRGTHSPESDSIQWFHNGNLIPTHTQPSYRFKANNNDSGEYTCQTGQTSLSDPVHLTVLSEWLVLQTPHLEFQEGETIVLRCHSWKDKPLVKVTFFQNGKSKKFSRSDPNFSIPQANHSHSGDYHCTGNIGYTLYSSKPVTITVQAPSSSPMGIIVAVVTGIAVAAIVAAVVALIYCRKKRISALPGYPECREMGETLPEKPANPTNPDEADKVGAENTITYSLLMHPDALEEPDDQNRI
From the text: (§1) The extracellular domain (ECD) of SIRPα and the ECD of CD40L were fused via an antibody Fc domain to generate SIRPαECD-Fc-CD40LECD chimeric proteins. When human proteins were used, the chimeric protein is referred to as hSIRPα-Fc-CD40L; when murine proteins were used, the chimeric protein is referred to as and mSIRPα-Fc-CD40L. Generically, the chimeric protein is referred to as SIRPα-Fc-CD40L. […] Mammalian cells were then transfected with the hSIRPα-Fc-CD40L expressing construct, and the secreted protein was purified from conditioned media by affinity chromatography. The purified protein was then analyzed for the presence of each individual domain by Western blotting using anti-SIRPα, anti-Fc, and anti-CD40L antibodies (FIG. 3A, bottom). […] The reduced and deglycosylated form of the protein migrated at the predicted monomeric molecular weight of 90.1 kDa. […] Next, binding affinities for SIRPα-Fc-CD40L to recombinant CD47, CD40, or Fc receptors were evaluated by surface plasmon resonance (SPR). […] Finally, to confirm that SIRPα-Fc-CD40L interacted with native CD47 and CD40 in a similar manner to recombinant CD47 and CD40, CHOK1-hCD47 and CHOK1-hCD40 reporter cell lines were developed (FIG. 3F). […] A functional ELISA evaluated whether SIRPα-Fc-CD40L could outcompete a commercially available single-sided SIRPα-Fc control for binding to recombinant CD47 (FIG. 3H).

FcγR-IIIb = FcγR-IIIb (Homo sapiens, UniProt O75015); experiment: SPR binding to Fc receptor FcγR-IIIb
From the text: as §1

[4] = tested on: CD8+ T cell-depleted PBMC; experiment: Proliferation of CD8+ T cell-depleted PBMC ([3H]-thymidine); assay type: cell-based, human; settings: 0.3, 3, 30, or 300 nM; 7-day culture; 33-50 donors
Method: (§2) Here, proliferation was assessed via [^3H]-Thymidine incorporation on days 5, 6, and 7. The order of samples (in triplicate) along the X-axis is media only, KLH, Exenatide, 0.3 nm SIRPα-Fc-CD40L, 3 nm SIRPα-Fc-CD40L, 30 nm SIRPα-Fc-CD40L and 300 nm SIRPα-Fc-CD40L. […] Here, proliferation was assessed by ELISpot. The order of samples (in triplicate) along the X-axis is media only, KLH, Exenatide, 0.3 nm SIRPα-Fc-CD40L, 3 nm SIRPα-Fc-CD40L, 30 nm SIRPα-Fc-CD40L and 300 nm SIRPα-Fc-CD40L.
(§3) The observation that SIRPα-Fc-CD40L stimulated CD40 signaling prompted investigation of other cellular functions that depend upon CD40 signaling. CD8+ T cell-depleted PBMC were isolated from a total of 33-50 different human donors and cultured in the presence of a dose-titration of hSIRPα-Fc-CD40L (FIG. 6A and FIG. 6B).

[5] = tested on: CD8+ T cell-depleted PBMC; experiment: IL-2 ELISpot of CD8+ T cell-depleted PBMC; assay type: cell-based, human; settings: day 8 of the culture
Method: as §2, §3

[6] = Repeat-dose safety and activity study in cynomolgus macaques; assay type: in vivo; settings: IV infusion weekly for five weeks; 0.1, 1, 10 and 40 mg/kg
Method: FIG. 21 is a graph showing cynomolgus macaques that were treated with vehicle, or 0.1, 1, 10, and 40 mg/kg of SIRPα-Fc-CD40L. Blood chemistry analysis assessed peripheral erythrocyte counts, hemoglobin levels, and hematocrit. In addition, the fold-change in lymphocyte count from pre-dose to 24 hours post-dose is shown.
The experiments of this example tested the safety and activity of the human SIRPα-Fc-CD40L chimeric protein following repeat doses in cynomolgus macaques. Briefly, naïve cynomolgus macaques were administered the human SIRPα-Fc-CD40L chimeric protein by intravenous infusion every week, for five consecutive weeks, at doses of 0.1, 1, 10 and 40 mg/kg. Standard hematology and clinical chemistry parameters were collected before and after each dose.
Receptor occupancy was evaluated on circulating CD40+ lymphocytes.

[7] = molecular target: T2, recombinant mouse CD47 (mouse) (UniProt Q61735); experiment: dual ELISA: coat mCD47-Fc, detect mCD40-His, tertiary anti-his-HRP, OD450
T2 sequence (looked up): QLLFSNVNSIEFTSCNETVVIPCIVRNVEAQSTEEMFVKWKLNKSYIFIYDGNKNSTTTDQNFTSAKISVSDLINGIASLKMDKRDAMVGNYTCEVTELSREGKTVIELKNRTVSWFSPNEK

[8] = tested on: IFNα1, IFNβ1, CD80 and CD86 expression in macrophages; experiment: qRT-PCR of macrophages sorted from macrophage:Toledo lymphoma co-cultures; assay type: cell-based, human; set-up: macrophage activation and type I interferon gene expression: dose or concentration left out as unconfirmed; settings: monotherapy; 2 hours
Method: FIG. 8D: Macrophage:Toledo lymphoma co-cultures were harvested 2 hours into phagocytosis assays in the presence of rituximab ([…]), SIRPα-Fc-CD40L ([…]), or the combination of both agents. Macrophages were isolated by CD11b+ FACS, RNA was prepared, cDNA synthesized, and gene expression (IFNa1, IFNb1, CD80, and CD86) assessed by qRT-PCR. Fold change was calculated using DDCT and values obtained from the housekeeping gene ACTB, and the corresponding values from untreated samples. […] After 2 hours, co-cultures were isolated from tissue culture vessels and were stained with a fluorescently conjugated CD11b antibody to discriminate macrophages. Cells were then assessed by flow cytometry for the co-localization of fluorescent signal from both cells types. Identical assays were set up where macrophages were pre-incubated for 1 hour with 20 μg/mL of a commercially available Fc block cocktail or with 20 μg/mL of a CD40 blocking antibody or with 5 μg/mL of a calreticulin blocking peptide. FIG. 8G: RAW 264.7-Lucia ISG cells were cultured with A20 lymphoma cells in the presence of […] of mSIRPα-Fc-CD40L, recombinant Fc-mCD40L, mSIRPα-Fc, or their combination, 1 mg/mL anti-mCD20, or the combination of mSIRPα-Fc-CD40L and anti-mCD20. After 24-hours type I interferon induced luminescence was assessed using a luminometer. The maximum luminescence (RLU) from each experiment was set to 1, and all other samples were normalized accordingly. Values from repeat experiments are shown.
RNA was prepared from macrophages isolated using fluorescent activated cell sorting (FACS) from SIRPα-Fc-CD40L/Rituximab treated co-cultures macrophages and Toledo lymphoma cells. The RNA was assessed by qRT-PCR for expression of IFNα1 and IFNβ1, and the macrophage activation markers CD80 and CD86.

Chain of FcγR-IIIb (O75015 17-200): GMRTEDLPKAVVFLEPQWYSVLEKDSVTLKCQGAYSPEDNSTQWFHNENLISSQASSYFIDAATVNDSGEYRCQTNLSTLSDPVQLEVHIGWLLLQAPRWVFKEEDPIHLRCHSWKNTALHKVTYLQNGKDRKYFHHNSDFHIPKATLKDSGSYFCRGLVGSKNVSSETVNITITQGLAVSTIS
Chain of FcγR-Ia (P12314 16-374): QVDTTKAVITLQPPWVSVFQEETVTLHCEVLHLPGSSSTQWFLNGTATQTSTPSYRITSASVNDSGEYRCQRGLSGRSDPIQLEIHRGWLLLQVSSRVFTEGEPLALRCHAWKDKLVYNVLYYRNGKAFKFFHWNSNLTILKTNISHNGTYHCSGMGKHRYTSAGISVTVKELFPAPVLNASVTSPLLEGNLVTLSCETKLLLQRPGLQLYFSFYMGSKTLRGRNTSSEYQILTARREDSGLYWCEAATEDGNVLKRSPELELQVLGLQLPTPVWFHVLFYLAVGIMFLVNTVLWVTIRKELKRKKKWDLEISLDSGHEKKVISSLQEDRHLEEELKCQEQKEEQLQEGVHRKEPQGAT

## SIRPα(CD172a)-Fc-LIGHT: ECD of SIRPα, hinge-CH2-CH3 Fc linker and ECD of LIGHT (SEQ ID NO: 63)
Tumors [1]
  survival: any survivors by the twenty-fifth day
  tumor size: most effective in reducing tumor size
Tumors [1]; no additional treatment
  rejection of secondary tumor challenge: 66.6%

## SIRPα(CD172a)-Fc-OX40L: ECD of SIRPα and ECD of OX40L fused via an antibody Fc domain (SEQ ID NO: 61)
Tumors [2]
  survival: any survivors by the sixteenth day
  tumor size: effective in reducing tumor size

## SIRPα-Fc: recombinant single-sided SIRPα-Fc protein [reference compound]
[3]
  interferon gene-driven luciferase activity (type I IFN response): no significant signal

## hSIRPα-Fc-CD40L: chimeric protein: ECD of human SIRPα fused via an antibody Fc domain to ECD of human CD40L (SEQ ID NO: 60)
FcγR-Ia
  binding: undetectable binding
FcγR-IIb
  binding: undetectable binding
FcγR-IIIb
  binding: undetectable binding
[4]
  proliferation of human PBMC: dose-dependent proliferation
[5]
  number of IL-2-secreting PBMC: dose-dependent increase
[6]
  hemolysis: no evidence
  thrombocytopenia: no evidence

## mSIRPα-Fc-CD40L chimeric protein (murine SIRPα ECD - Fc - murine CD40L ECD) (from UniProt P97797 32-373; P27548 47-260) (Fc fusion)
[7]
  EC50: 7.37 nM and 8.73 nM

## rituximab: anti-CD20 antibody [reference compound]
[8]
  macrophage activation and type I interferon gene expression: induced macrophage activation and the expression of type I interferon genes
